Laboratory results: patent US5430063A, “Phenoxyphenyl derivatives, compositions thereof and methods for their use” (Akzo N.V., priority 1991, dated 1995)

Test: biological half-life for sleep-wake behaviour in rats
Conditions: rat, in vivo
Description: The biological half-lives of the phenoxyphenyl derivatives were determined for the sleep-wake behaviour in rats and compared with the half-lives of the prior art compounds.

| Structure (SMILES) | half-life |
| --- | --- |
| CN(C)Cc1ccccc1Oc1ccc(Cl)cc1.O=C(O)/C=C\C(=O)O [Example 4, 2-(4-chlorophenoxy)-N,N-dimethylbenzenemethanamine (Z)-2-butenedioate] | 1 h |
| Clc1ccc(Oc2ccccc2C2=NCCN2)cc1Cl.O=C(O)/C=C\C(=O)O [Example 6a, 2-[2-(3,4-dichlorophenoxy)phenyl]-4,5-dihydro-1H-imidazole (Z)-2-butenedioate] | 1.5 to 2.5 h |
| NCc1ccccc1Sc1ccccc1 [2-(phenylthio)benzenemethanamine, reference compound] | 0.5 h |
| COc1ccc(Sc2ccccc2CN)cc1 [2-[(4-methoxyphenyl)thio]-benzenemethanamine, reference compound] | < 0.5 h |

Same assay, conditions: rat, in vivo; biological half-life, sleep-wake behaviour in rats; read-out: half-life (converted)

| Structure (SMILES) | half-life |
| --- | --- |
| Clc1ccc(Oc2ccccc2C2=NCCN2)cc1.O=C(O)/C=C\C(=O)O [Example 5, 2-[2-(4-chlorophenoxy)phenyl]-4,5-dihydro-1H-imidazole (Z)-2-butenedioate] | 3 h |
| Cl.NCc1ccccc1Oc1ccc(Cl)cc1 [Example 1, 2-(4-chlorophenoxy)benzenemethanamine hydrochloride] | 1 to 2.5 h |
| Cl.NCc1ccccc1Oc1ccc(Cl)c(Cl)c1 [Example 2, 2-(3,4-dichlorophenoxy)benzenemethanamine hydrochloride] | 2.5 h |
